A word on the IC50: it is the point on the concentration scale where inhibition reaches its midpoint.

We go through 22 compounds from patent publication US20060135483A1, “Oxygen/nitrogen heterocycle inhibitors of tyrosine phosphatases” (priority 2004, published 2006).

The assay has as its target T1, PTP-1B (Homo sapiens, UniProt P18031).
T1 construct: PTP-1B (purified, 1 mg/mL) as a 1:250 dilution
T1 sequence (P18031 1-321 limits assumed): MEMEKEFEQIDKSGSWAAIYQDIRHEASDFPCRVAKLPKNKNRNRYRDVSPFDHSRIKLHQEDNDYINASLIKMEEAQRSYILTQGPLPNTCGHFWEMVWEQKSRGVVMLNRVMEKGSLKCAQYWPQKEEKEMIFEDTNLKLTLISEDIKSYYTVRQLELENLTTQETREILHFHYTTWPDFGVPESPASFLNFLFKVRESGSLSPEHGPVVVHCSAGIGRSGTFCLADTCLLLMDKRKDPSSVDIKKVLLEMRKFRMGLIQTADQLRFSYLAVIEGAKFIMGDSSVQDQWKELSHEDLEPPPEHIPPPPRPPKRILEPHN
The assay is described as follows: pNPP assay for tyrosine phosphatase inhibitory activity. It is filed as biochemical. The conditions noted are these: pNPP substrate 10 mM, 30° C., 10 minutes, absorbance at 405 nm. Here is the method: The compounds provided herein are evaluated for biological activity as inhibitors of PTP-1B using, for example, a pNPP assay. Such an assay can be used to screen compounds for tyrosine phosphatase inhibitory activity as shown in Example 39.
A 5× stock of pNPP (p-nitrophenol phosphate) substrate is prepared as 50 mM pNPP in assay buffer. Various tyrosine phosphatase solutions can be prepared as follows: • PTP-1B (purified, 1 mg/mL) as a 1:250 dilution (to a final concentration of 4:g/mL); • TC-PTP (NEB, 1000 units in 100:L) as a 1:50 dilution (to a final concentration of 2 U/10:L (4:g/mL)); • CD45 (Calbiochem, 20:g, 400 units in 100: L) as a 1 :50 dilution (to a final concentration of 0.8 U/10:L (4:g/mL)); • LAR (NEB, 1000 units in 200:L) as a 1:75 dilution (to a final concentration of 0.7 U/10:L (4:g/mL)); and • PTP-β (UBI, #14-350, 10,000 units, 40:g/571:L) as a 1:17.5 dilution (to a final concentration of 10 U/10:L (4:g/mL));
The compound to be tested is prepared as 1:16.7 and 1:50 dilutions from stock in a total volume of 1 00:M DMSO to give final concentrations of 626 and 200:M. The reaction mixtures are prepared in a 96-well microtiter plate (on ice) as 55:L assay buffer, 5:L of the diluted compound (to a final concentration of 31.3 and 10:M), 20:L of the pNPP substrate solution (to a final concentration of 10 mM) and 20:L PTPase in assay buffer. The reactants are mixed well, the plate placed in a water bath at 30° C. and incubated for 10 minutes. The reaction is then terminated by adding 1 OO:L of 2M K2CO3 per well, and the absorbance is measured at 405 nm by conventional means.
Unless otherwise indicated, this assay was used to determine activity for the selected compounds whose activity is recorded in Table 1 and Table 2.

For the compound `O=C(O)c1ccccc1-c1cccc(-c2cnc(N(Cc3ccc(C(F)(F)P(=O)(O)O)c(Br)c3)c3ccc(Cl)c(Cl)c3)o2)c1` [Example 20, 3′-{2-[[3-Bromo-4-(difluoro-phosphono-methyl)-benzyl]-(3,4-dichloro-phenyl)-amino]-oxazol-5-yl}-biphenyl-2-carboxylic acid], the IC50 (Table 1) lay in the range of 100 to 500 nM. For `O=C(O)c1ccc(CN(c2ccc(Cl)c(Cl)c2)c2nnc(-c3cccc(Oc4cccc(C(=O)O)c4)c3)o2)cc1` [Example 21], the IC50 (Table 1) lay within 10000 to 100000 nM. Regarding `COC(=O)c1cccc(Oc2cccc(-c3nnc(N(Cc4ccc(C(F)(F)P(=O)(O)O)cc4)c4ccc(Cl)c(Cl)c4)o3)c2)c1` [Example 22, 3-[3-(5-{(3,4-Dichloro-phenyl)-[4-(difluoro-phosphono-methyl)-benzyl]-amino}-[1,3,4]oxadiazol-2-yl)-phenoxy]-benzoic acid methyl ester], the IC50 (Table 1) was 1000 to 10000 nM. Regarding `O=C(O)c1cccc(Oc2cccc(-c3nnc(N(Cc4ccc(C(F)(F)P(=O)(O)O)cc4)c4ccc(Cl)c(Cl)c4)o3)c2)c1` [Example 23, 3-[3-(5-{(3,4-Dichloro-phenyl)-[4-(difluoro-phosphono-methyl)-benzyl]-amino}-[1,3,4]oxadiazol-2-yl)-phenoxy]-benzoic acid], the IC50 (Table 1) lay within 1000 to 10000 nM.

`COC(=O)c1cccc(Oc2cccc(-c3nnc(N(Cc4ccc(C(F)(F)P(=O)(O)O)c(Br)c4)c4ccc(Cl)c(Cl)c4)o3)c2)c1` [Example 24, 3-(3-{5-[[3-Bromo-4-(difluoro-phosphono-methyl)-benzyl]-(3,4-dichloro-phenyl)-amino]-[1,3,4]oxadiazol-2-yl}-phenoxy)-benzoic acid methyl ester] displayed an IC50 (Table 1) of 500 to 1000 nM. The same measure, in the same setting: next, `O=C(O)c1cccc(Oc2cccc(-c3nnc(N(Cc4ccc(C(F)(F)P(=O)(O)O)c(Br)c4)c4ccc(Cl)c(Cl)c4)o3)c2)c1` [Example 25, 3-(3-{5-[[3-Bromo-4-(difluoro-phosphono-methyl)-benzyl]-(3,4-dichloro-phenyl)-amino]-[1,3,4]oxadiazol-2-yl}-phenoxy)-benzoic acid]: 100 to 500 nM.

The compound `CN(Cc1ccc(C(F)(F)P(=O)(O)O)c(Br)c1)c1ncc(-c2ccc(-c3ccccc3C(=O)O)cc2)o1` [Example 26, 4′-{2-[[3-Bromo-4-(difluoro-phosphono-methyl)-benzyl]-methyl-amino]-oxazol-5-yl}-biphenyl-2-carboxylic acid] displayed a 50% inhibitory concentration (IC50) (Table 2) of 500 to 1000 nM. For the setting “Table 2”, `O=C(O)c1ccccc1-c1ccc(-c2cnc(N(Cc3ccc(C(F)(F)P(=O)(O)O)c(Br)c3)c3ccccc3)o2)cc1` [Example 27, 4′-{2-[[3-Bromo-4-(difluoro-phosphono-methyl)-benzyl]-phenyl-amino]-oxazol-5-yl}-biphenyl-2-carboxylic acid] gave a 50% inhibitory concentration (IC50) of 100 to 500 nM. On to `O=C(O)c1ccccc1-c1ccc(-c2cnc(N(Cc3ccc(C(F)(F)P(=O)(O)O)c(Br)c3)c3ccc(F)cc3)o2)cc1` [Example 28, 4′-{2-[[3-Bromo-4-(difluoro-phosphono-methyl)-benzyl]-(4-fluorophenyl)-amino]-oxazol-5-yl}-biphenyl-2-carboxylic acid], for which, under “Table 2”, the half-inhibitory concentration (IC50) is 100 to 500 nM. Same read-out and setting: next, `O=C(O)c1ccccc1-c1ccc(-c2cnc(N(Cc3ccc(C(F)(F)P(=O)(O)O)c(Br)c3)c3ccc(Cl)cc3)o2)cc1` [Example 29, 4′-{2-[[3-Bromo-4-(difluoro-phosphono-methyl)-benzyl]-(4-chlorophenyl)-amino]-oxazol-5-yl}-biphenyl-2-carboxylic acid]: 100 to 500 nM; `O=C(O)c1ccccc1-c1ccc(-c2cnc(N(Cc3ccc(C(F)(F)P(=O)(O)O)c(Cl)c3)c3ccc(Cl)cc3)o2)cc1` [Example 30, 4′-{2-[[3-Chloro-4-(difluoro-phosphono-methyl)-benzyl]-(4-chlorophenyl)-amino]-oxazol-5-yl}-biphenyl-2-carboxylic acid]: 100 to 500 nM.

As for `CS(=O)(=O)c1ccc(-c2cnc(N(Cc3ccc(C(F)(F)P(=O)(O)O)c(Br)c3)c3ccc(F)cc3)o2)cc1` [Example 32, {[2-Bromo-4-({(4-fluoro-phenyl)-[5-(4-methanesulfonyl-phenyl)-oxazol-2-yl]-amino}-methyl)-phenyl]-difluoro-methyl}-phosphonic acid], under “Table 2”, the half-inhibitory concentration (IC50) is less than 100 nM. Still for that read-out and setting: next, `CC(C)OC(=O)OC(C)OP(=O)(O)C(F)(F)c1ccc(CN(c2ccc(Cl)c(Cl)c2)c2ncc(-c3ccc(S(C)(=O)=O)cc3)o2)cc1Br` (stereo not shown) [Example 33, {[2-Bromo-4-({(3,4-dichloro-phenyl)-[5-(4-methanesulfonyl-phenyl)-oxazol-2-yl]-amino}-methyl)-phenyl]-difluoro-methyl}-phosphonic acid mono-(1-isopropoxycarbonyloxy-ethyl) ester]: 10000 to 100000 nM. `CCOC(=O)C(C)NP(=O)(O)C(F)(F)c1ccc(CN(c2ccc(Cl)c(Cl)c2)c2ncc(-c3ccc(S(C)(=O)=O)cc3)o2)cc1Br` [Example 34, {[2-Bromo-4-({(3,4-dichloro-phenyl)-[5-(4-methanesulfonyl-phenyl)-oxazol-2-yl]-amino}-methyl)-phenyl]-difluoro-methyl}-phosphonic acid mono-(L-alanylethyl ester) amidate] gave a half-maximal inhibitory concentration (IC50) (Table 2) of 100 to 500 nM. For the setting “Table 2”, `CC(C)(C)C(=O)OCOP(=O)(OCOC(=O)C(C)(C)C)C(F)(F)c1ccc(CN(c2ccc(F)cc2)c2ncc(-c3ccc(S(C)(=O)=O)cc3)o2)cc1Br` [Example 35, 2,2-Dimethyl-propionic acid {[2-bromo-4-({(4-fluoro-phenyl)-[5-(4-methanesulfonylphenyl)-oxazol-2-yl]-amino}-methyl)-phenyl]-difluoro-methyl}-(2,2-dimethyl-propionyloxymethoxy)-phosphinoyloxymethyl ester] gave an IC50 of 10000 to 100000 nM. Take `NC(=O)c1ccc(-c2cnc(N(Cc3ccc(C(F)(F)P(=O)(O)O)c(Br)c3)c3ccc(F)cc3)o2)cc1` [Example 37, [(2-Bromo-4-{[[5-(4-carbamoyl-phenyl)-oxazol-2-yl]-(4-fluoro-phenyl)-amino]-methyl}-phenyl)-difluoro-methyl]-phosphonic acid]: the IC50 (Table 2) fell in the range of 100 to 500 nM. `O=P(O)(O)C(F)(F)c1ccc(CN(c2ccc(F)cc2)c2ncc(-c3ccc(-c4nn[nH]n4)cc3)o2)cc1Br` [Example 38, ({2-Bromo-4-[((4-fluoro-phenyl)-{5-[4-(2H-tetrazol-5-yl)-phenyl]-oxazol-^2-yl}-amino)-methyl]-phenyl}-difluoro-methyl)-phosphonic acid]: the IC50 (Table 2) was less than 100 nM.

For the compound `CS(=O)(=O)c1ccc(-c2cnc(N(Cc3ccc(OCC(=O)O)c(Br)c3)c3ccc(Cl)c(Cl)c3)o2)cc1` [[2-Bromo-4-({(3,4-dichloro-phenyl)-[5-(4-methanesulfonyl-phenyl)-oxazol-2-yl]-amino}-methyl)-phenoxy]-acetic acid], the IC50 (Table 1) was in the range of 10000 to 100000 nM. The compound `CS(=O)(=O)c1ccc(-c2cnc(N(Cc3ccc(C(F)(F)C(=O)O)cc3)c3ccc(Cl)c(Cl)c3)o2)cc1` [[4-({(3,4-Dichloro-phenyl)-[5-(4-methanesulfonyl-phenyl)-oxazol-2-yl]-amino}-methyl)-phenyl]-difluoro-acetic acid] came in with an IC50 (Table 1) of 10000 to 100000 nM. Consider `COc1cccc(CN(Cc2ccc(C(F)(F)P(=O)(O)O)c(Br)c2)c2ncc(-c3ccc(S(C)(=O)=O)cc3)o2)c1` [[(2-Bromo-4-{[[5-(4-methanesulfonyl-phenyl)-oxazol-2-yl]-(3-methoxy-benzyl)-amino]-methyl}-phenyl)-difluoro-methyl]-phosphonic acid], for which the IC50 (Table 2) is 100 to 500 nM. Under “Table 2”, `COCCCN(Cc1ccc(C(F)(F)P(=O)(O)O)c(Br)c1)c1ncc(-c2ccc(S(C)(=O)=O)cc2)o1` [[(2-Bromo-4-{[[5-(4-methanesulfonyl-phenyl)-oxazol-2-yl]-(3-methoxy-propyl)-amino]-methyl}-phenyl)-difluoro-methyl]-phosphonic acid] displayed a concentration for half-maximal inhibition (IC50) of 100 to 500 nM. Still for that read-out and setting: next, `COc1ccccc1N(Cc1ccc(C(F)(F)P(=O)(O)O)c(Cl)c1)c1ncc(-c2ccc(S(C)(=O)=O)cc2)o1` [[(2-Chloro-4-{[[5-(4-methanesulfonyl-phenyl)-oxazol-2-yl]-(2-methoxy-phenyl)-amino]-methyl}-phenyl)-difluoro-methyl]-phosphonic acid]: 500 to 1000 nM.
